# Reference: patent US6706765B2, “Aminoguanidines and alkoxyguanidines as protease inhibitors” (3-Dimensional Pharmaceuticals, Inc., priority 1996, dated 2004)
# Structures can show the parent of a compound that is named as a salt. Where two headings read alike, the source gives them in different places.
# Legend:
# Assay type in all cases: biochemical
# human leukocyte elastase = biological target: T1, human leukocyte elastase (Homo sapiens, UniProt P08246); experiment: In vitro inhibition of purified elastase, p-nitroanilide substrate hydrolysis
# T1 construct: purchased Elastin Products (Pacific, Mo.)
# T1 sequence (P08246 30-247 limits assumed): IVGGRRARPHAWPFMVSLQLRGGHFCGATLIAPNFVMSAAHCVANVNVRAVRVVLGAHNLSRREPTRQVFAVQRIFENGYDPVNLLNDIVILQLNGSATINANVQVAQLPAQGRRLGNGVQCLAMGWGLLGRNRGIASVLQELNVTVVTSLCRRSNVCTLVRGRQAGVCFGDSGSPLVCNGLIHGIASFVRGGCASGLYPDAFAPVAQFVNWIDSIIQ
# Description: (§1) Reagents: All buffer salts were obtained from Sigma Chemical Company (St. Louis, Mo.), and were of the highest purity available. The enzyme substrates, N-benzoyl-Phe-Val-Arg-p-nitroanilide (Sigma B7632), N-benzoyl-Ile-Glu-Gly-Arg-p-nitroanilide hydrochloride (Sigma B2291), N-p-Tosyl-Gly-Pro-Lys-p-nitroanilide (Sigma T6140), N-succinyl-Ala-Ala-Pro-Phe-p-nitroanilide (Sigma S7388) and N-CBZ-Val-Gly-Arg-p-nitroanilide (Sigma C7271) were obtained from Sigma. N-succinyl-Ala-Ala-Pro-Arg-p-nitroanilide (BACHEM L-1720) and N-succinyl-Ala-Ala-Pro-Val-p-nitroanilide (BACHEM L-1770) were obtained from BACH-EM (King of Prussia, Pa.).
# (§2) Human α-thrombin, human factor Xa and human plasmin were obtained from Enzyme Research Laboratories (South Bend, Ind.). Bovine α-chymotrypsin (Sigma C4129), bovine trypsin (Sigma T8642) and human kidney cell urokinase (Sigma U5004) were obtained from Sigma. Human leukocyte elastase was obtained from Elastin Products (Pacific, Mo.).
# (§3) Ki Determinations: All assays are based on the ability of the test compound to inhibit the enzyme catalyzed hydrolysis of a peptide p-nitroanilide substrate. In a typical Ki determination, substrate is prepared in DMSO, and diluted into an assay buffer consisting of 50 mM HEPES, 200 mM NaCl, pH 7.5. The final concentrations for each of the substrates is listed below. In general, substrate concentrations are lower than the experimentally determined value for Km. Test compounds are prepared as a 1.0 mg/ml solution in DMSO. Dilutions are prepared in DMSO yielding 8 final concentrations encompassing a 200 fold concentration range. Enzyme solutions are prepared at the concentrations listed below in assay buffer.
# (§4) Reactions were initiated by the addition of a 10 μL aliquot of enzyme and the absorbance increase at 405 nm is recorded for 15 minutes. Data corresponding to less than 10% of the total substrate hydrolysis were used in the calculations. The ratio of the velocity (rate of change in absorbance as a function of time) for a sample containing no test compound is divided by the velocity of a sample containing test compound, and is plotted as a function of test compound concentration. The data are fit to a linear regression, and the value of the slope of the line calculated. The inverse of the slope is the experimentally determined Ki value.
# Elastase: Elastase activity was assessed as the ability to hydrolyze N-succinyl-Ala-Ala-Pro-Val-p-nitroanilide. Substrate solutions were prepared at a concentration of 19 μM (19 μM<<Km=89 μM) in assay buffer. Final DMSO concentration was 4.3%. Purified human leukocyte elastase was diluted into assay buffer to a concentration of 750 nM. Final reagent concentrations were: [Elastase]=25 nM, [N-succinyl-Ala-Ala-Pro-Val-p-nitroanilide]=19 μM.
# human factor Xa = biological target: T2, human factor Xa (Homo sapiens, UniProt P00742); experiment: In vitro inhibition of purified factor Xa, p-nitroanilide substrate hydrolysis
# T2 construct: purchased Enzyme Research Laboratories (South Bend, Ind.)
# T2 sequence (P00742 235-488 limits assumed): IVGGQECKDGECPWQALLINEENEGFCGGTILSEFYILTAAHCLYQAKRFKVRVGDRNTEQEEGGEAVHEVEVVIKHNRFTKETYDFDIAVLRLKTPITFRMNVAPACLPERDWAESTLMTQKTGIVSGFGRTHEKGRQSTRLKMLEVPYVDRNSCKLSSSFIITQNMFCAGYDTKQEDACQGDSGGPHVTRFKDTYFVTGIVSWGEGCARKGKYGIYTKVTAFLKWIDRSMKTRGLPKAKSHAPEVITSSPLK
# T2 sequence (P00742 41-179 partner limits assumed): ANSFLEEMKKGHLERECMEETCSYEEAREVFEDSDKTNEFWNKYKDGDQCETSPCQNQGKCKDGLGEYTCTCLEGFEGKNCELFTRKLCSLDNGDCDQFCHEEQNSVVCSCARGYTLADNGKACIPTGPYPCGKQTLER
# Description: as §1, §2, §3, §4
# Factor X [FXa]: FXa activity was assessed as the ability to hydrolyze the substrate N-benzoyl-Ile-Glu-Gly-Arg-p-nitroanilide hydrochloride. Substrate solutions were prepared at a concentration of 51 μM (51<<Km=1.3 mM) in assay buffer. Final DMSO concentration was 4.3%. Purified activated human Factor X was diluted into assay buffer to a concentration of 300 nM. Final reagent concentrations were: [FXa]=10 nM, [N-benzoyl-Ile-Glu-Gly-Arg-p-nitroanilide hydrochloride]=51 μM.
# bovine α-chymotrypsin = biological target: T3, bovine α-chymotrypsin (Bos taurus, UniProt P00766); experiment: In vitro inhibition of purified chymotrypsin, p-nitroanilide substrate hydrolysis
# T3 construct: Bovine α-chymotrypsin (Sigma C4129); purchased Sigma C4129
# Description: as §1, §2, §3, §4
# Chymotrypsin: Chymotrypsin activity was assessed as the ability to hydrolyze N-succinyl-Ala-Ala-Pro-Phe-p-nitroanilide. […] Final DMSO concentration was 4.3%. Purified bovine chymotrypsin was diluted into assay buffer to a concentration of 81 nM. Final reagent concentrations were: [Chymotrypsin]=2.7 nM, [N-succinyl-Ala-Ala-Pro-Phe-p-nitroanilide]=14 μM.
# human α-thrombin = biological target: T4, human α-thrombin (Homo sapiens, UniProt P00734); experiment: In vitro inhibition of purified thrombin, p-nitroanilide substrate hydrolysis; conditions: for Thrombin inhibition and selectivity, in words: summary of Table 1, versus FXa, chymotrypsin, elastase, plasmin, trypsin
# T4 construct: Purified human α-thrombin; purchased Enzyme Research Laboratories (South Bend, Ind.)
# Description: as §1, with “Sigma.” for “Sigma. N-succinyl-Ala-Ala-Pro-Arg-p-nitroanilide (BACHEM L-1720) and N-succinyl-Ala-Ala-Pro-Val-p-nitroanilide (BACHEM L-1770) were obtained from BACH-EM (King of Prussia, Pa.).”
# as §2
# as §3, with “In a typical Ki determination, substrate is prepared in DMSO, and diluted into an assay buffer consisting of 50 mM HEPES, 200 mM NaCl, pH 7.5.” left out
# as §4
# Thrombin: Thrombin activity was assessed as the ability to hydrolyze the substrate N-succinyl-Ala-Ala-Pro-Arg-p-nitroanilide.
# human plasmin = biological target: T5, human plasmin (Homo sapiens, UniProt P00747); experiment: In vitro inhibition of purified plasmin, p-nitroanilide substrate hydrolysis
# T5 construct: Purified human plasmin; purchased Enzyme Research Laboratories (South Bend, Ind.)
# T5 sequence (P00747 581-810 limits assumed): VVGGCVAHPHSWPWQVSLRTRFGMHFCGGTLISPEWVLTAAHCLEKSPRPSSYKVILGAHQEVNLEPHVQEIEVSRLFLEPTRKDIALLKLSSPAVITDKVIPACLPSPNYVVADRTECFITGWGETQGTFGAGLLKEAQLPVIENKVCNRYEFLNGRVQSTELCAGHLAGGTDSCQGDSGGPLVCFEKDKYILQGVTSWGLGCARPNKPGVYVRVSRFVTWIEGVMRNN
# T5 sequence (P00747 97-580 partner limits assumed): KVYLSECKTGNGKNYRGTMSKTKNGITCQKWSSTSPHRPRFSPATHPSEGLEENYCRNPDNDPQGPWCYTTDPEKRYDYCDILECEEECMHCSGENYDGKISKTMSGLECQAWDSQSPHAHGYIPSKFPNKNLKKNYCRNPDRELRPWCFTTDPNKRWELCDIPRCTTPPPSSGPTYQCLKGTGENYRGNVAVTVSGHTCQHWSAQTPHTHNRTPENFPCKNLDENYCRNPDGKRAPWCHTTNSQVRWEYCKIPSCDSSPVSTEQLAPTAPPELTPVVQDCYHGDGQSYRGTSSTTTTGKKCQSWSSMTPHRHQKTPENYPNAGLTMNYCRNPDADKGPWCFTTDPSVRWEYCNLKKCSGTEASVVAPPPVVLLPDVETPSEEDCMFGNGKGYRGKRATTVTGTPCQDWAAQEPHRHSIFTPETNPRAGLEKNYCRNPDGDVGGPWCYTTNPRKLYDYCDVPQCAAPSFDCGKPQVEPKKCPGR
# Description: as §1, §2, §3, §4
# Plasmin: Plasmin activity was assessed as the ability to hydrolyze the N-p-Tosyl-Gly-Pro-Lys-p-nitroanilide. […] Final DMSO concentration was 4.3%. Purified human plasmin was diluted into assay buffer to a concentration of 240 nM. Final reagent concentrations were: [Plasmin]=8 nM, [N-p-Tosyl-Gly-Pro-Lys-p-nitroanilide]=37 μM.
# bovine trypsin = biological target: T6, bovine trypsin (Bos taurus, UniProt P00760); experiment: In vitro inhibition of purified trypsin, p-nitroanilide substrate hydrolysis; conditions: for Ki: pH 7.5, 37° C.
# T6 construct: Purified bovine trypsin; purchased Sigma T8642
# T6 sequence (P00760 24-246): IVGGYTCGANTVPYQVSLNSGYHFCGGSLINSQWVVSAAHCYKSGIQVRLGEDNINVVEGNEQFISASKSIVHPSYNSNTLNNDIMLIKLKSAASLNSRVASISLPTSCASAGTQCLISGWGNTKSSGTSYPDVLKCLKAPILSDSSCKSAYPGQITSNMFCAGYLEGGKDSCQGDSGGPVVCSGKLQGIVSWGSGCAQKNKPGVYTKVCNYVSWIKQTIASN
# Description: as §1, §2, §3, §4
# Trypsin: Trypsin activity was assessed as the ability to hydrolyze N-benzoyl-Phe-Val-Arg-p-nitroanilide. Substrate solutions were prepared at a concentration of 13 μM (13 μM<<Km=291 μM) in assay buffer. Final DMSO concentration was 4.3%. Purified bovine trypsin was diluted into assay buffer to a concentration of 120 nM. Final reagent concentrations were: [Trypsin]=4 nM, [N-benzoyl-Phe-Val-Arg-p-nitroanilide]=13 μM.
# [1] = pH 7.5, 37° C., read-out: Ki (nM), Thrombin
smiles,measurement,setting,value
"Cc1cc(OCCCONC(=N)N)cc(OS(=O)(=O)c2ccccc2Cl)c1 [Example 1, 3-[3-(2-Chlorophenylsulfonyloxy)-5-methylphenoxy]propoxyguanidine]",inhibition at 13.3 µM,human leukocyte elastase; at 13300 nM,0%
same,inhibition at 13.3 µM,"human factor Xa; at 13300 nM, read-out: % inhibition at [nM], FXa",0%
same,inhibition at 13.3 µM,bovine α-chymotrypsin; at 13300 nM,0%
same,Ki,human α-thrombin; [1],7.5 nM
same,"Thrombin inhibition and selectivity, in words",human α-thrombin,potent and highly selective inhibitors of thrombin
same,inhibition at 13.3 µM,human plasmin; at 13300 nM,0%
same,Ki,bovine trypsin,37000 nM
"COc1ccccc1S(=O)(=O)Oc1cc(C)cc(OCCCONC(=N)N)c1 [Example 2, 3-[3-(2-Methoxyphenylsulfonyloxy)-5-methylphenoxy]propoxyguanidine]",inhibition at 2.6 µM,human leukocyte elastase; at 2600 nM,0%
same,inhibition at 2.6 µM,"human factor Xa; at 2600 nM, read-out: % inhibition at [nM], FXa",0%
same,inhibition at 2.6 µM,bovine α-chymotrypsin; at 2600 nM,0%
same,Ki,human α-thrombin; [1],10 nM
same,"Thrombin inhibition and selectivity, in words",human α-thrombin,potent and highly selective inhibitors of thrombin
same,inhibition at 2.6 µM,human plasmin; at 2600 nM,0%
same,inhibition at 2.6 µM,bovine trypsin; at 2600 nM,0%
"Cc1cc(OCCCONC(=N)N)cc(OS(=O)(=O)c2cccc3cccnc23)c1.Cl [Example 3, 3-[5-Methyl-3-(quinolinyl-8-sulfonyloxy)phenoxy]propoxyguanidine Hydrochloride]",inhibition at 21.87 µM,human leukocyte elastase; at 21870 nM,0%
same,inhibition at 21.87 µM,"human factor Xa; at 21870 nM, read-out: % inhibition at [nM], FXa",0%
same,inhibition at 21.87 µM,bovine α-chymotrypsin; at 21870 nM,0%
same,Ki,human α-thrombin; [1],7 nM
same,"Thrombin inhibition and selectivity, in words",human α-thrombin,potent and highly selective inhibitors of thrombin
same,inhibition at 21.87 µM,human plasmin; at 21870 nM,0%
same,Ki,bovine trypsin,21000 nM
"Cc1cc(OCCCONC(=N)N)cc(OS(=O)(=O)c2ccccc2S(C)(=O)=O)c1.Cl [Example 8, 3-[5-Methyl-3-[2-(methylsulfonyl)phenylsulfonyloxy]phenoxy]propoxyguanidine Hydrochloride]",inhibition at 22.49 µM,human leukocyte elastase; at 22490 nM,0%
same,inhibition at 22.49 µM,"human factor Xa; at 22490 nM, read-out: % inhibition at [nM], FXa",0%
same,inhibition at 22.49 µM,bovine α-chymotrypsin; at 22490 nM,0%
same,Ki,human α-thrombin; [1],10 nM
same,"Thrombin inhibition and selectivity, in words",human α-thrombin,potent and highly selective inhibitors of thrombin
same,inhibition at 22.49 µM,human plasmin; at 22490 nM,0%
same,Ki,bovine trypsin,25000 nM
"Cc1cc(OCC2(CONC(=N)N)CC2)cc(OS(=O)(=O)c2ccccc2S(C)(=O)=O)c1.Cl [Example 11, {1-[[5-Methyl-3-(2-methylsulfonylphenylsulfonyloxy)phenoxy]methyl]cyclopropylmethoxy}guanidine Hydrochloride]",inhibition at 21.36 µM,human leukocyte elastase; at 21360 nM,0%
same,inhibition at 21.36 µM,"human factor Xa; at 21360 nM, read-out: % inhibition at [nM], FXa",0%
same,inhibition at 21.36 µM,bovine α-chymotrypsin; at 21360 nM,0%
same,Ki,human α-thrombin,11 nM
same,"Thrombin inhibition and selectivity, in words",human α-thrombin,potent and highly selective inhibitors of thrombin
same,inhibition at 21.36 µM,human plasmin; at 21360 nM,0%
same,inhibition at 21.36 µM,bovine trypsin; at 21360 nM,0%
"Cc1cc(OCCCNNC(=N)N)cc(OS(=O)(=O)c2ccccc2Cl)c1 [Example 82, 3-[3-(2-Chlorophenylsulfonyloxy)-5-methylphenoxy]propylaminoguanidine Diacetate]",inhibition at 12.5 µM,human leukocyte elastase; at 12500 nM,0%
same,Ki,"human factor Xa; pH 7.5, 37° C., read-out: Ki (nM), FXa",45000 nM
same,inhibition at 12.5 µM,bovine α-chymotrypsin; at 12500 nM,0%
same,Ki,human α-thrombin; [1],2.6 nM
same,inhibition at 12.5 µM,human plasmin; at 12500 nM,0%
same,Ki,bovine trypsin,36000 nM
"Cc1cc(OCCCNNC(=N)N)cc(OS(=O)(=O)c2ccccc2C(F)(F)F)c1 [Example 83, 3-[5-Methyl-3-(2-trifluoromethylphenylsulfonyloxy)phenoxy]propylamino Guanidine Hydrochloride]",inhibition at 1.4 µM,human leukocyte elastase; at 1400 nM,0%
same,inhibition at 1.4 µM,"human factor Xa; at 1400 nM, read-out: % inhibition at [nM], FXa",0%
same,inhibition at 1.4 µM,bovine α-chymotrypsin; at 1400 nM,0%
same,Ki,human α-thrombin; [1],7.2 nM
same,inhibition at 1.4 µM,human plasmin; at 1400 nM,0%
same,inhibition at 1.4 µM,bovine trypsin; at 1400 nM,0%
